Reference: patent publication US20260325473A1, “N-Beta-Hydroxybutyryl-Amino Acids and Related Compositions and Methods” (The Board of Trustees of the Leland Stanford Junior …, priority 2023, published 2026)

Key:
[1] = Metabolite quantitation in mouse plasma (QQQ-LC/MS); type: in vivo
Experimental: Preparation of plasma samples for LC-MS analysis. Plasma was collected from mice via a submandibular bleed into lithium heparin tubes (BD, 365985) and immediately transferred onto ice. The blood was centrifuged at 4° C. at 5000 rpm for 5 min and the top layer of plasma was aliquoted and frozen at −80 °C. To extract polar metabolites from plasma for LC-MS analysis, 150 μl of a 2:1 mixture of acetonitrile/methanol was added to 50 μl of plasma. The mixture was centrifuged at 4° C. for 10 min at 15,000 rpm and the supernatant was transferred to a LC-MS vial.
Targeted metabolomics. Targeted measurements were performed using an Agilent 6470 triple quadrupole LC-MS instrument. MS analysis was performed using AJS in negative mode. The AJS source parameters were set as follows: the dry gas temperature was set at 250° C. with a gas flow of 12 l/min and the nebulizer pressure at 25 psi; the sheath gas temperature was set to 300° C. with the sheath gas flow set at 12 l/min; and the capillary voltage was set to 3,500 V. Separation of polar metabolites was performed as described above in the ‘Untargeted measurements of metabolites by LC-MS’ section. Multiple reaction monitoring was performed for the indicated metabolites with the listed dwell times, fragmentor voltage, collision energies, cell accelerator voltages and polarities. Quantification of the endogenous metabolite concentrations were performed by generating a standard curve with known concentrations of each metabolite. Metabolite standards were analyzed alongside the plasma samples using the same targeted triple quadrupole LC/MS method. A calibration standard curve generated from the metabolite standard concentrations and total peak areas were used to calculate the concentrations of each endogenous metabolite. The dilution of the plasma during the sample preparation was also taken into account for the quantification.

[2] = system: DIO mice; experiment: Plasma AST, ALT, TG, HDL, LDL in DIO mice after chronic treatment; type: in vivo, mouse; settings: 50 mg/kg/day IP; 14 days
Experimental: General animal information. Animal experiments were performed according to procedure approved by the Stanford University Administrative Panel on Laboratory Animal Care (APLAC). Mice were maintained in 12-hr light-dark cycles at 22° C. and ~50% relative humidity and fed a standard irradiated rodent chow diet. Where indicated, high-fat diet (D12492, Research Diets 60% kcal from fat) and ketogenic diet (D06040601, Research Diets, 80% kcal fat/15% kcal protein/5% kcal carbohydrate) was used. Male C57BL/6J (stock no. 000664) and male C57BL/6J DIO mice (stock no. 380050) were purchased from Jackson Laboratory. Male C57BL/6NCrl (stock no. 027) mice were purchased from Charles River Laboratory. Whole body CNDP2-KO mice (catalog number, C57BL/6NCrl-Cndp2em1 (IMPC) Mbp/Mmucd, RRID: MMRRC_043492-UCD) were obtained from the Mutant Mouse Regional Resource Center, a NCRR-NIH funded strain repository. For in vivo injection of mice with metabolites, compounds were dissolved in 18:1:1 (by volume) of saline/Kolliphor EL (Sigma Aldrich)/DMSO. Compounds were administered to mice daily via intraperitoneal injections at 5 μl/g body weight at the indicated doses. For all injection experiments, mice were mock injected with the vehicle for 3-5 days until body weights have stabilized. Sample sizes were determined on the basis of previous experiments using similar methodologies. For metabolite administration experiments, mice were randomly assigned to treatment groups. Experimenters were not blinded to groups.

In the case of CC(O)CC(=O)N[C@@H](Cc1ccccc1)C(=O)O (some centres unmarked) [BHB-Phe, N-betahydroxybutyryl-phenylalanine], the “effect of acute treadmill running on level” value ([1]; 15 min running) is reported as “unchanged”, the “elevation after ketone ester administration” value ([1]; 30 min after ketone drink, 3 mg/g) is reported as greater than 10 fold and the “effect of strenuous and prolonged exercise on level” value ([1]; 30 min strenuous running) is reported as “robust co-induction”. For the same molecule, the “plasma ALT” value [2] was “reductions”, the “plasma AST” value [2] was “reductions” and the “plasma HDL-cholesterol” value [2] was “no changes”. The “plasma LDL-cholesterol” value [2] was “no changes” and the “plasma total triglycerides (TG)” value [2] was “reductions”.
